{
  "source": "paper PMC11156954",
  "about": "“Inhibition and transport mechanisms of the ABC transporter hMRP5” (Nature Communications, 2024)",
  "key": {"[1]": {"test_system": "GFP-hMRP5", "assay": "Doxorubicin transport assay in Xenopus laevis oocytes", "type": "cell-based, human", "settings": "oocytes expressing both hMRP5 and M5PI vs only hMRP5; 200 μM doxorubicin, 180 min; two-tailed t-test *P = 0.0442", "procedure": "The transport assay was essentially done and modified as described. In brief, the cRNAs of C-terminal GFP-tagged hMRP5 and C-terminal mcherry-tagged M5PI were prepared from the linearized pcs2CAG vector DNA templates using the mMESSAGE mMACHINE T7 transcription system (Thermo Scientific, AM1344). Xenopus oocytes were injected with approximately 30 nl of cRNA (GFP-tagged hMRP5 and mcherry-tagged M5PI have the equal quantity 30 ng) or water after maintained in ND96 solution (96 mM NaCl, 2 mM KCl, 1 mM MgCl2, 1.8 mM CaCl2, 5 mM HEPES, pH 7.4) overnight. After 3 days of culture, the GFP and mcherry fluorescence of oocytes was detected using Nikon Confocal A1R, and oocytes showing similar fluorescence intensity were selected for assay. Then, oocytes were pre-incubated in Kulori buffer (90 mM NaCl, 1 mM KCl, 1 mM MgCl2, 5 mM HEPES, pH 7.4) for 5 min before being transferred to 1 ml Kulori buffer containing 200 μM doxorubicin for 180 min. The assay was stopped by removing the buffer and then washed with Kulori buffer at least 3 times and transferred into 1.5 ml tubes (3 oocytes per tube). Excess washing buffer was removed from the tube, and then 50 μl 50% methanol was added to the tube for oocyte homogenization by pipetting. The homogenized samples were centrifuged at 10,000 × g for 10 min at 4 °C, and the supernatants were transferred into new tubes and incubated at −20 °C until further analysis. The samples were acquired with a Q Exactive mass spectrometer coupled with UltiMate 3000 liquid chromatography system (Thermo scientific, CA, USA) after centrifugation at 20,000 × g for 15 min at 4 °C. A Hypersil GOLDTM C18 column (2.1 ×100 mm, 1.9 μm, Thermo Scientific) was used at a flow rate of 0.3 ml min^−1 for separation. Mobile phase A was 0.1% formic acid, while mobile phase B was acetonitrile modified with 0.1% formic acid. The mass spectrometer was operated in positive mode with a spray voltage of 3.5 kV. Full scan mass spectrometry data were recorded from the m/z range of 80–800. A standard dilution curve for quantification of doxorubicin was done. Statistical analysis of the transport assay results was performed using GraphPad Prism. Source data is provided as Source Data 6. The mass spectrometry data is provided as Supplementary Data 3."}, "[2]": {"target": "T1, hMRP5-Δ1-94 (Homo sapiens, UniProt O15440)", "T1 construct": "The codon-optimized full-length human ABCC5 gene encoding the MRP5 protein (UniProt ID: O15440); 8xHis (C); 2xstrep (C); made in house; host or cells: HEK293F", "T1 sequence (O15440 95-1437 limits assumed, stated change not applied)": "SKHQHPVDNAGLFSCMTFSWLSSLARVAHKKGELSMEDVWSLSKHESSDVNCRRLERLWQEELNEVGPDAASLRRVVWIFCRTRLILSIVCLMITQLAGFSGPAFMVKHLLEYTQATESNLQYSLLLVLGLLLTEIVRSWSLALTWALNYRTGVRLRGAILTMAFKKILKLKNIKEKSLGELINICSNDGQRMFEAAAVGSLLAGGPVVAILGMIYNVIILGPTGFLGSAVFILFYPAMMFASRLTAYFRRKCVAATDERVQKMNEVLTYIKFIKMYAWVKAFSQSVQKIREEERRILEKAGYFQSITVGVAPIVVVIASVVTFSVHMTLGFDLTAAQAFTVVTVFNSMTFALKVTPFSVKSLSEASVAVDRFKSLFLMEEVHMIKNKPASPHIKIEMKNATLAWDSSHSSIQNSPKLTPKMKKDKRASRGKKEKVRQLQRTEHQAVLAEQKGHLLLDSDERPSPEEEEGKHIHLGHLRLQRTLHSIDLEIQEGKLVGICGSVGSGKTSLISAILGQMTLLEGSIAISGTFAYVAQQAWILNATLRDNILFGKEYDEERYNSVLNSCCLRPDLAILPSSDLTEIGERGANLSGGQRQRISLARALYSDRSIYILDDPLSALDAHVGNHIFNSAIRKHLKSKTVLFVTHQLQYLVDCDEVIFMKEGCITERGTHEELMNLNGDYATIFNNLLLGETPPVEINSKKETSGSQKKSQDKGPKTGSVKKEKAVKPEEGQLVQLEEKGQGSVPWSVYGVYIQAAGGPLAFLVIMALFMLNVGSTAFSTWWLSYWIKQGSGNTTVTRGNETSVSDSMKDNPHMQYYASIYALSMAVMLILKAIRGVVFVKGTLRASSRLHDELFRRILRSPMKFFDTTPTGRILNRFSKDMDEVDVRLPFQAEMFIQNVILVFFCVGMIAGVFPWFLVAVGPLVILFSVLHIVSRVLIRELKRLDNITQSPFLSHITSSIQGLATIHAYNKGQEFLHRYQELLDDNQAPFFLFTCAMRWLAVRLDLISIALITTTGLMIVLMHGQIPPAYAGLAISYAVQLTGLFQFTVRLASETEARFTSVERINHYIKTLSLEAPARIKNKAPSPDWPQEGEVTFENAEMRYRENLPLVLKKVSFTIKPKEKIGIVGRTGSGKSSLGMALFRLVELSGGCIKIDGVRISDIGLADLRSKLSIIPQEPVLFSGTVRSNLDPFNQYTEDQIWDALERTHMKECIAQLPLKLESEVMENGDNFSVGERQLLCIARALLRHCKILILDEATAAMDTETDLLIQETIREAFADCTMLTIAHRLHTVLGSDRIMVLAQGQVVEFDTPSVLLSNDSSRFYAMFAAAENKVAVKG", "assay": "MST binding assay, hMRP5-Δ1-94", "settings": "MST, digitonin-purified hMRP5-Δ1-94, 15 min at room temperature", "procedure": "We monitored the binding of different peptides to digitonin-purified hMRP5-Δ1-94-8xHis by MST assay (Monolith NT). HEPES buffer was used to replace Tris buffer during protein purification in the MST assay. The purified protein was mixed with RED-tris-NTA 2nd Generation dye (NanoTemper, MO-L018). Next, serially diluted peptides were mixed with the labeled protein. The mixtures were incubated for 15 min at room temperature, then the capillaries were loaded and the samples were assessed at 3% LED/excitation power and medium MST power. All peptides used in this study were synthesized in GL Biochem (Shanghai). The peptide sequence is provided as Source Data 5. The MST data were analyzed with MO.Affinity Analysis software."}},
  "note": "“Also recorded” adds a separate entry of the source. No end group written: not given here.",
  "data": [
    {"sequence": "CSKFRRTRPLECQDALETAARAEGLSLDASMHSQLRILDEC (cysteines drawn unpaired) [M5PI]", "values": [
      {"measurement": "inhibition of doxorubicin transport, in words", "setting": "[1]", "result": "contained a relatively higher amount of doxorubicin than oocytes expressing only hMRP5"},
      {"measurement": "binding affinity to hMRP5, in words", "setting": "[2]", "result": "stronger hMRP5 affinity than selected anticancer drugs"},
      {"measurement": "binding affinity to hMRP5, in words", "setting": "[2]; listed as Cys35-Cys75 peptide", "result": "higher affinity for hMRP5 compared to the original Asp35-Glu75 peptide"},
      {"measurement": "binding affinity to hMRP5, in words", "setting": "[2]; listed as D35C-E75C", "result": "highest affinity for hMRP5 among these peptides; also recorded: higher binding affinity to hMRP5 than the well-studied substrate doxorubicin and inhibitor trequinsin"}
    ]}
  ]
}
